Experimental data as given in patent publication US20260374739A1, “SMALL MOLECULAR WEIGHT CHEMICAL COMPOUND TO ANTAGONIZE EPH-EPHRIN TETRAMERIZATION AND INHIBIT BIDIRECTIONAL SIGNALING” (THE BOARD OF REGENTS OF THE UNIVERSITY OF TEXAS SYSTEM, priority 2022, published 2026).
Values joined by “and” are separate entries in the source; they are usually repeats but may differ in a detail not shown here. Equal values may be shown once. Where a name gives a salt, the structure may show the parent alone. Marks after values point to notes of the source that are not given here.

Experiments:
[1] = biological target: T1, EphrinB2-EphB2 (Homo sapiens, UniProt P29323); assay: Octet 80 sec association/500 sec dissociation, immobilized human EphrinB2-Fc binding to soluble human EphB2-His; settings: for EphB2 Inhibition Percent, Inhibition of Association ONLY: at 3.2 μM and 80 seconds; for EphB2 Inhibition Percent, Inhibition of Association ONLY / EphB2 Inhibition Percent, Inhibition of Association-Dissociation: immobilized human EphrinB2, 25 nM soluble human EphB2; for EphB2 Inhibition Percent, Inhibition of Association-Dissociation: at 3.2 μM and 580 seconds; for % Inhibition: Association + Dissociation (160 sec) / % Inhibition: Association ONLY (80 sec): EphB2, 25 nM EphB2, 3.2 μM compound, A20-I as max control, 0* = less than 0, no inhibition
T1 construct: soluble human EphB1-His, EphB2-His, and EphB4-His ectodomains; commercially available human EphrinB1-Fc (EB1), EphrinB2-Fc (EB2), and EphrinB3-Fc (EB3) ectodomain proteins; purchased
T1 sequence (P29323 19-543 limits assumed): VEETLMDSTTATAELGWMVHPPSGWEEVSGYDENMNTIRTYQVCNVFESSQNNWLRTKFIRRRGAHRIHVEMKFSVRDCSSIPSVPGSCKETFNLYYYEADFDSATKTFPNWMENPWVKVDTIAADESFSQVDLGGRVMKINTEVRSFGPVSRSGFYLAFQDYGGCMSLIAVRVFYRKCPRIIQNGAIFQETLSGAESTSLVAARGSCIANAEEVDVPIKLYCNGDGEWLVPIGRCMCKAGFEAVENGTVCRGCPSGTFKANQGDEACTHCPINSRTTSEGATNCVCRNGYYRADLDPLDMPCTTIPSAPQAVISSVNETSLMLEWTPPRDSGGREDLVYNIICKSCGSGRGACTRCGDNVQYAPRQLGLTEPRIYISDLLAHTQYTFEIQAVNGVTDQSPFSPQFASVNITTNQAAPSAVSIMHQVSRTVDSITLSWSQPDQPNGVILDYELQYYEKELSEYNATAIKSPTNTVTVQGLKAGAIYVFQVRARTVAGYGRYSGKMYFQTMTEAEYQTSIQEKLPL
Description: (§1) In another experiment, whether certain A20 analogs might have specificity for different Eph receptors was tested. An Octet RED384 system was used to obtain biophysical ON-OFF binding data (association-dissociation) for the three different human EphrinB2-EphB1, EphrinB2-EphB2, and EphrinB2-EphB4 protein-protein interactions and to assess the effect of A20 chemicals on the binding kinetics.
(§2) FIGS. 72A-72C show three example Octet sensorgram response traces for the immobilized human EphrinB2 ectodomain protein binding to soluble forms of the human EphB1, EphB2, and EphB4 ectodomain proteins, in the absence or presence of an A20 chemical (buffer conditions are always PBSTD:PBS with 0.05% Tween-20, 1% DMSO, and +/− indicated chemical). After loading EphrinB2-Fc protein to Octet AHC biosensors, washing, and obtaining stable baseline measurements in the appropriate PBSTD (either with or without indicated chemical), the sensors are placed in its buffer that also contains the indicated soluble EphB protein for the association step (0-80″), and then returned to its buffer for the dissociation step (81″-580″). In each figure (FIGS. 72A-72C), a sensorgram run using 10 μM of the 2×HCl salt form of A20-I is compared to the no compound control run to exemplify the maximum level of reduced response signal typically obtained with a potent A20 chemical.
(§3) Because the response levels during the dissociation step plateau for the EphrinB2-EphB2 and EphrinB2-EphB1 interactions by the first 80″, AUCs were also calculated for run data encompassing the first 160″ of each experiment to account for both the 80″ association data (red asterisks) and the first 80″ of dissociation data (marked by green line and asterisks).
(§4) The selectivity of another A20 analog (a 3×HCL salt form of compound BQPB4) in comparison to previously tested compound, A20-1, was tested as described in Example 27 above.
(§5) Further to the experiments listed above, a series of dose-response experiments were conducted to determine the IC50 of a selected A20 chemical (A20-1) on the kinetics of human EphrinB2 ligand ectodomain protein binding to its cognate human EphB1, EphB2, and EphB4 receptor ectodomain proteins. FIG. 74A-74C are representative sensorgrams showing the effect of 0, 0.1, 0.2, 0.4, 0.8, 1.6, and 3.2 μM, concentrations of the 2×HCl salt of A20-I along with a 10 μM max standard (also A20-1) on three different Ephrin-EphB interactions (e.g., EphB1 in FIG. 74A, EphB2 in FIG. 74B and EphB4 in FIG. 74C). […] Additional IC50 values were determined at specific timepoints, at 75″ into the association step and at 55″ into the dissociation step (135″).
(§6) All absolute and relative IC50 values are provided in the Table 6 below, where absolute are based off the full binding sensorgram traces, and relative are based off of the max control traces.
(§7) In another experiment, the % inhibition for various A20 analog chemicals against the three different EphrinB2-EphB protein interactions was determined. Specifically, the percent inhibition for immobilized human EphrinB2-Fc binding to 25 nM soluble human EphB1-His (FIG. 76A, enlarged in FIG. 76D), EphB2-His (FIG. 76B, enlarged in FIG. 76E), and EphB4-His (FIG. 76C, enlarged in FIG. 76F) with 3511-I, 8009-9255, QTM-Br, A19, A19-NO2, and IM (all at 3.2 μM) was determined.

[2] = biological target: T2, EphrinB2-EphB4 (Homo sapiens, UniProt P54760); assay: Octet 80 sec association/500 sec dissociation, immobilized human EphrinB2-Fc binding to soluble human EphB4-His; settings: for EphB4 Inhibition Percent, Inhibition of Association ONLY: at 3.2 μM and 80 seconds; for EphB4 Inhibition Percent, Inhibition of Association ONLY / EphB4 Inhibition Percent, Inhibition of Association-Dissociation: immobilized human EphrinB2, 25 nM soluble human EphB4; for EphB4 Inhibition Percent, Inhibition of Association-Dissociation: at 3.2 μM and 580 seconds
T2 construct: soluble human EphB1-His, EphB2-His, and EphB4-His ectodomains; commercially available human EphrinB1-Fc (EB1), EphrinB2-Fc (EB2), and EphrinB3-Fc (EB3) ectodomain proteins; purchased
T2 sequence (P54760 16-539 limits assumed): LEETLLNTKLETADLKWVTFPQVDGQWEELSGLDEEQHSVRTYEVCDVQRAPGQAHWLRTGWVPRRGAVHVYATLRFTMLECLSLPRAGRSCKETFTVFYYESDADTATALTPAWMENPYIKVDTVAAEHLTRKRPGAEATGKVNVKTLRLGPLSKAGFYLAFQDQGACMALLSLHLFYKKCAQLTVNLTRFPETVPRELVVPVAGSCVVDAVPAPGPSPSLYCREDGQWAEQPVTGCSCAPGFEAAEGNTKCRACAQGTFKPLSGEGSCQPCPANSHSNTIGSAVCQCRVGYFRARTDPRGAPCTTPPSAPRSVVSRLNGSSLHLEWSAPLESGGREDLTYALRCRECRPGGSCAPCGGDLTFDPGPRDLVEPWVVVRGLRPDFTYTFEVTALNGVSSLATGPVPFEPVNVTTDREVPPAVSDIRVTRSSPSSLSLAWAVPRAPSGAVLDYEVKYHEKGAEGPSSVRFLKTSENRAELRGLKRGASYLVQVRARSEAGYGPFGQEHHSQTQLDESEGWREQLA
Description: as §1, §2, §3, §4, §5, §6, §7

[3] = biological target: T3, EphrinB2-EphB1 (Homo sapiens, UniProt P54762); assay: Octet 80 sec association/500 sec dissociation, immobilized human EphrinB2-Fc binding to soluble human EphB1-His; settings: for EphB1 Inhibition Percent, Inhibition of Association ONLY: at 3.2 μM and 80 seconds; for EphB1 Inhibition Percent, Inhibition of Association ONLY / EphB1 Inhibition Percent, Inhibition of Association-Dissociation: immobilized human EphrinB2, 25 nM soluble human EphB1; for EphB1 Inhibition Percent, Inhibition of Association-Dissociation: at 3.2 μM and 580 seconds
T3 construct: soluble human EphB1-His, EphB2-His, and EphB4-His ectodomains; commercially available human EphrinB1-Fc (EB1), EphrinB2-Fc (EB2), and EphrinB3-Fc (EB3) ectodomain proteins; purchased
T3 sequence (P54762 18-540 limits assumed): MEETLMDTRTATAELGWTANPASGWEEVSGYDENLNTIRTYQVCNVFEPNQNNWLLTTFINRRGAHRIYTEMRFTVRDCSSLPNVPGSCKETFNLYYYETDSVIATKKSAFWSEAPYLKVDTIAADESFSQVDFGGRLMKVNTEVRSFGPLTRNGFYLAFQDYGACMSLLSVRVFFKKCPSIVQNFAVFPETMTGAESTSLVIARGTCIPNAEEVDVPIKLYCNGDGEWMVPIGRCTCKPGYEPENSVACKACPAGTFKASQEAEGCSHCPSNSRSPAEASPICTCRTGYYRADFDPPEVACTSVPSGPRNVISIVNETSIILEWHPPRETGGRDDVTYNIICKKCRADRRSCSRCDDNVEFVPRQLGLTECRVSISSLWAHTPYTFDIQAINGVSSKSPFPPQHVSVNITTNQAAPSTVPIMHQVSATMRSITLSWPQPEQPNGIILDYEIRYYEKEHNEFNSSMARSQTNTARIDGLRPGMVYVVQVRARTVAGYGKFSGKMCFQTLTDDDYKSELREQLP
Description: as §1, §2, §3, §4, §5, §6, §7

[4] = EphB4, 25 nM EphB4, 3.2 μM compound, A20-I as max control, 0* = less than 0, no inhibition
[5] = EphB1, 25 nM EphB1, 3.2 μM compound, A20-I as max control, 0* = less than 0, no inhibition
[6] = listed as A20-1.2xMSA, methanesulfonate

For `COc1ccccc1N1CCN(Cc2cc(I)c(O)c3ncccc23)CC1` [Compound 71-A, 7-iodo-5-((4-(2-methoxyphenyl)piperazin-1-yl)methyl)quinolin-8-ol dihydrochloride], the “EphB2 Inhibition Percent, Inhibition of Association ONLY” value [1] was 58.7%, the “EphB2 Inhibition Percent, Inhibition of Association-Dissociation” value [1] was 73.2% and the “EphB4 Inhibition Percent, Inhibition of Association ONLY” value [2] was 17.5%. The “EphB4 Inhibition Percent, Inhibition of Association-Dissociation” value [2] was 35.6%, the “EphB1 Inhibition Percent, Inhibition of Association ONLY” value [3] was 39.6% and the “EphB1 Inhibition Percent, Inhibition of Association-Dissociation” value [3] was 52.3%.
In the case of `Oc1cccc2cccnc12` [Compound 102, 8-Hydroxyquinoline, reference compound], the “inhibition of EphrinB2-EphB interactions” value ([1]; 3.2 μM, EphB1, EphB2 and EphB4) is reported as “unable to disrupt any of the EphrinB2-EphB interactions”, the “% Inhibition: Association + Dissociation (160 sec)” value (“% Inhibition … (160 sec)” below) [1] is reported as 0* % and the “% Inhibition: Association ONLY (80 sec)” value [1] is reported as 0* %. The “EphB2 Inhibition Percent, Inhibition of Association ONLY” value [1] was 0*%, the “EphB2 Inhibition Percent, Inhibition of Association-Dissociation” value [1] was 0*% and the “% Inhibition … (160 sec)” value [2, 4] was 0* %. The “% Inhibition: Association ONLY (80 sec)” value [2, 4] was 0* %, the “EphB4 Inhibition Percent, Inhibition of Association ONLY” value [2] was 0*% and the “EphB4 Inhibition Percent, Inhibition of Association-Dissociation” value [2] was 0*%. The “% Inhibition … (160 sec)” value [3, 5] was 0* %, the “% Inhibition: Association ONLY (80 sec)” value [3, 5] was 0* % and the “EphB1 Inhibition Percent, Inhibition of Association ONLY” value [3] was 0*%. The “EphB1 Inhibition Percent, Inhibition of Association-Dissociation” value [3] was 0*%.
With `Oc1c(I)cc(CN2CCOCC2)c2cccnc12` [Compound 89, 4-((8-hydroxy-7-iodoquinolin-1-ium-5-yl)methyl)morpholin-4-ium methanesulfonate] the “% Inhibition … (160 sec)” value [1, 6] was 74.6%, the “% Inhibition: Association ONLY (80 sec)” value [1, 6] was 55.1% and the “EphB2 Inhibition Percent, Inhibition of Association ONLY” value ([1]; methanesulfonate) was 55.1%. For the same molecule, the “EphB2 Inhibition Percent, Inhibition of Association-Dissociation” value ([1]; methanesulfonate) was 74.6%, the “EphB4 Inhibition Percent, Inhibition of Association ONLY” value ([2]; methanesulfonate) was 1.7% and the “EphB4 Inhibition Percent, Inhibition of Association-Dissociation” value ([2]; methanesulfonate) was 25.4%. The “% Inhibition … (160 sec)” value ([3]; EphB1, 25 nM EphB1, 3.2 μM compound, A20-I as max control, 0* = less than 0, no inhibition, listed as A20-1.2xMSA, methanesulfonate) was 46.3%, the “EphB1 Inhibition Percent, Inhibition of Association ONLY” value ([3]; methanesulfonate) was 28.4% and the “EphB1 Inhibition Percent, Inhibition of Association-Dissociation” value ([3]; methanesulfonate) was 46.3%.
`Oc1ccc(CN2CCN(Cc3ccc(C(F)(F)F)cc3)CC2)c2cccnc12` [Compound 49, 8-hydroxy-5-((4-(4-(trifluoromethyl)benzyl)piperazin-1-ium-1-yl)methyl)quinolin-1-ium chloride] was tested, and the “EphB2 Inhibition Percent, Inhibition of Association ONLY” value [1] was 21.3% and 24.9%, the “EphB2 Inhibition Percent, Inhibition of Association-Dissociation” value [1] was 46.2% and 36.2% and the “EphB4 Inhibition Percent, Inhibition of Association ONLY” value [2] was 0*/0*%. The “EphB4 Inhibition Percent, Inhibition of Association-Dissociation” value [2] was 0% and 2.8% and the “EphB1 Inhibition Percent, Inhibition of Association-Dissociation” value [3] was 19.8% and 39.0%.
With `Oc1ccc(CN2CCN(C3CCCC3)CC2)c2cccnc12` [Compound 83, 5-((4-cyclopentylpiperazin-1-yl)methyl)quinolin-8-ol] the “EphB2 Inhibition Percent, Inhibition of Association ONLY” value [1] was 20.9%, the “EphB2 Inhibition Percent, Inhibition of Association-Dissociation” value [1] was 21.2% and the “EphB4 Inhibition Percent, Inhibition of Association ONLY” value [2] was 0.5%. The “EphB4 Inhibition Percent, Inhibition of Association-Dissociation” value [2] was 0.5%, the “EphB1 Inhibition Percent, Inhibition of Association ONLY” value [3] was 21.4% and the “EphB1 Inhibition Percent, Inhibition of Association-Dissociation” value [3] was 23.6%.
